Data as given in patent US10336739B2, “4-hydroxy-3-(heteroaryl)pyridine-2-one APJ agonists” (BRISTOL-MYERS SQUIBB COMPANY, priority 2015, dated 2019).

These molecules were tested against human APJ receptor (Homo sapiens (Human), UniProt P35414) (assay: Intracellular cAMP accumulation assay (APJ hcAMP, HTRF)). Settings: HEK293 cells stably expressing human APJ receptor; inhibition of forskolin-mediated cAMP production; read-out: Human APJ cAMP EC50 Potency range.
Assay type: cell-based
In short: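 cAMP inhibition was quantified by HTRF against a cAMP standard curve, with EC50 fitted to a variable-slope sigmoidal curve. Compounds acted on 5,000 APJ-stable HEK293 cells for 30 minutes at room temperature alongside 2 μM forskolin and […] IBMX. Detection reagents were incubated 60 min.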

Sequence of human APJ receptor (P35414 whole entry): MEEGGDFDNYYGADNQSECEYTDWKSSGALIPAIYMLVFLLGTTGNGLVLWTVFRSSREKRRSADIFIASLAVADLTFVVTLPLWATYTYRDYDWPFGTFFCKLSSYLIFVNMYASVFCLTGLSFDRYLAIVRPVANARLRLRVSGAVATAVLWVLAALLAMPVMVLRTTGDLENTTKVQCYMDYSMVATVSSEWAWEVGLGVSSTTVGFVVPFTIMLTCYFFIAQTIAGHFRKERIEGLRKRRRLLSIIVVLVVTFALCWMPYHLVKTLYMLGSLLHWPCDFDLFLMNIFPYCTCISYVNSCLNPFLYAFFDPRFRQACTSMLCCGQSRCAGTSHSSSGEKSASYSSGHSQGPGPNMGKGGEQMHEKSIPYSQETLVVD

First: CCCCc1nc(O)c(-c2nnc(CN(C)C(=O)Cc3ccccc3)o2)c(O)c1-c1c(OC)cccc1OC [Example 155, N-({5-[6-butyl-5-(2,6-dimethoxyphenyl)-2,4-dihydroxypyridin-3-yl]-1,3,4-oxadiazol-2-yl}methyl)-N-methyl-2-phenylacetamide]
Second: CCCCc1nc(O)c(-c2nnc(Cc3ccc(Cl)cc3)o2)c(O)c1-c1c(OC)ccc(F)c1OC (single isomer, unassigned) [Example 218, 6-butyl-3-{5-[(4-chlorophenyl)methyl]-1,3,4-oxadiazol-2-yl}-5-(3-fluoro-2,6-dimethoxyphenyl)pyridine-2,4-diol]
The EC50 of the first is lower: 0.01 to 10 nM for the first, 10 to 100 nM for the second.

Work on `CCOCc1nc(O)c(-c2nnc(Cn3ccccc3=O)o2)c(O)c1-c1c(OC)cc(F)cc1OC` [Example 212, 1-({5-[6-(ethoxymethyl)-5-(4-fluoro-2,6-dimethoxyphenyl)-2,4-dihydroxypyridin-3-yl]-1,3,4-oxadiazol-2-yl}methyl)-1,2-dihydropyridin-2-one] yielded an EC50 of 10 to 100 nM.

Same assay, conditions: HEK293 cells stably expressing human APJ receptor; inhibition of forskolin-mediated cAMP production; read-out: hAPJ cAMP EC50 (nM) Potency range

First: COCCOCc1nc(O)c(-c2nnc(Cc3noc4ccccc34)o2)c(O)c1-c1c(OC)cccc1OC [Example 242, 3-{5-[(1,2-benzoxazol-3-yl)methyl]-1,3,4-oxadiazol-2-yl}-5-(2,6-dimethoxyphenyl)-6-[(2-methoxyethoxy)methyl]pyridine-2,4-diol]
Second: CCCCc1nc(O)c(-c2nnc(CC(=O)NCc3ccccc3Cl)o2)c(O)c1-c1c(OC)cccc1OC [Example 265, 2-{5-[6-butyl-5-(2,6-dimethoxyphenyl)-2,4-dihydroxy-pyridin-3-yl]-1,3,4-oxadiazol-2-yl}-N-[(2-chlorophenyl)methyl]acetamide]
The EC50 of the first is higher: 10 to 100 nM for the first, 0.01 to 10 nM for the second. The second is the more potent here.

`CCOCc1nc(O)c(-c2nnc(Cc3ccc(Cl)cc3)o2)c(O)c1-c1ccccc1OC` [Example 249, 3-{5-[(4-chlorophenyl)methyl]-1,3,4-oxadiazol-2-yl}-6-(ethoxymethyl)-5-(2-methoxyphenyl) pyridine-2,4-diol] and `CCOCc1nc(O)c(-c2nnc(Cc3ccc(Cl)cn3)o2)c(O)c1-c1c(O)cccc1OC` [Example 274, 3-{5-[(5-chloropyridin-2-yl)methyl]-1,3,4-oxadiazol-2-yl}-6-(ethoxymethyl)-5-(2-hydroxy-6-methoxyphenyl) pyridine-2,4-diol] fall in the same range of EC50: 0.01 to 10 nM for the first, 0.01 to 10 nM for the second.

`CCCCc1nc(O)c(-c2nnc(CNC(=O)c3ccccc3)o2)c(O)c1-c1cccc(OC)c1OC` [Example 250, N-({5-[6-butyl-5-{2,3-dimethoxyphenyl)-2,4-dihydroxy-pyridin-3-yl]-1,3,4-oxadiazol-2-yl}methyl) benzamide] and `CCCCc1nc(O)c(-c2nnc(CC(=O)NCc3ncco3)o2)c(O)c1-c1c(OC)cccc1OC` [Example 256, 2-{5-[6-butyl-5-(2,6-dimethoxyphenyl)-2,4-dihydroxypyridin-3-yl]-1,3,4-oxadiazol-2-yl}-N-[(1,3-oxazol-2-yl)methyl] acetamide] fall in the same range of EC50: 0.01 to 10 nM for the first, 0.01 to 10 nM for the second.

Same assay, conditions: HEK293 cells stably expressing human APJ receptor; inhibition of forskolin-mediated cAMP production; read-out: hAPJ cAMP EC50 Potency range

First: CCCCc1nc(O)c(-c2nnc(CNC(=O)c3ccc(Cl)cc3)o2)c(O)c1-c1c(OC)cccc1OC [Example 163, N-({5-[6-butyl-5-(2,6-dimethoxyphenyl)-2,4-dihydroxypyridin-3-yl]-1,3,4-oxadiazol-2-yl}methyl)-4-chlorobenzamide]
Second: CCCCc1nc(O)c(-c2nnc(CC(N)=O)o2)c(O)c1-c1c(OC)cccc1OC [Example 180, 2-{5-[6-butyl-5-(2,6-dimethoxyphenyl)-2,4-dihydroxypyridin-3-yl]-1,3,4-oxadiazol-2-yl}acetamide]
The EC50 of the first is lower: 0.01 to 10 nM for the first, 10 to 100 nM for the second.

Compared with `CCCCc1nc(O)c(-c2nnc(CC(=O)NCCOC)o2)c(O)c1-c1c(OC)cccc1OC` [Example 193, 2-{5-[6-butyl-5-(2,6-dimethoxyphenyl)-2,4-dihydroxypyridin-3-yl]-1,3,4-oxadiazol-2-yl}-N-(2-methoxyethyl) acetamide], `CCCCc1nc(O)c(-c2nnc(CC(=O)OC(C)(C)C)o2)c(O)c1-c1c(OC)cccc1OC` [Example 118, tert-butyl 2-{5-[6-butyl-5-(2,6-dimethoxyphenyl)-2,4-dihydroxypyridin-3-yl]-1,3,4-oxadiazol-2-yl}acetate] is lower in EC50: 10 to 100 nM for the first, 0.01 to 10 nM for the second.

`CCCCc1nc(O)c(-c2nnc(CCc3ccc(C(F)(F)F)cc3)o2)c(O)c1-c1c(OC)cccc1OC` [Example 75, 6-butyl-5-(2,6-dimethoxyphenyl)-3-(5-{2-[4-(trifluoromethyl)phenyl]ethyl}-1,3,4-oxadiazol-2-yl)pyridine-2,4-diol] and `CCCCc1nc(O)c(-c2nnc(Cc3cc(F)cc(C(F)(F)F)c3)o2)c(O)c1-c1c(OC)cccc1OC` [Example 57, 6-butyl-5-(2,6-dimethoxyphenyl)-3-(5-{[3-fluoro-5-(trifluoromethyl)phenyl]methyl}-1,3,4-oxadiazol-2-yl)pyridine-2,4-diol] fall in the same range of EC50: 10 to 100 nM for the first, 10 to 100 nM for the second.

First: CCCCc1nc(O)c(-c2nnc(-c3cnccn3)o2)c(O)c1-c1c(OC)cccc1OC [Example 12, 6-butyl-5-(2,6-dimethoxyphenyl)-3-[5-(pyrazin-2-yl)-1,3,4-oxadiazol-2-yl]pyridine-2,4-diol]
Second: CCCCc1nc(O)c(-c2nnc(Cc3ccncc3)o2)c(O)c1-c1c(OC)cccc1OC [Example 3, 6-butyl-5-(2,6-dimethoxyphenyl)-3-[5-(pyridin-4-ylmethyl)-1,3,4-oxadiazol-2-yl]pyridine-2,4-diol]
The EC50 of the first is higher: 100 to 300 nM for the first, 10 to 100 nM for the second.

`CCCCc1nc(O)c(-c2nnc(CC(=O)Nc3nccs3)o2)c(O)c1-c1c(OC)cccc1OC` [Example 201, 2-{5-[6-butyl-5-(2,6-dimethoxyphenyl)-2,4-dihydroxypyridin-3-yl]-1,3,4-oxadiazol-2-yl}-N-(1,3-thiazol-2-yl)acetamide] and `CCCCc1nc(O)c(-c2nnc(Cc3csc(C)n3)o2)c(O)c1-c1c(OC)cccc1OC` [Example 79, 6-butyl-5-(2,6-dimethoxyphenyl)-3-{5-[(2-methyl-1,3-thiazol-4-yl)methyl]-1,3,4-oxadiazol-2-yl}pyridine-2,4-diol] fall in the same range of EC50: 0.01 to 10 nM for the first, 0.01 to 10 nM for the second.

`CCCCc1nc(O)c(-c2nnc(Cc3ccnc(Cl)c3)o2)c(O)c1-c1c(OC)cccc1OC` [Example 59, 6-butyl-3-{5-[(2-chloropyridin-4-yl)methyl]-1,3,4-oxadiazol-2-yl}-5-(2,6-dimethoxyphenyl) pyridine-2,4-diol] and `CCCCc1nc(O)c(-c2nnc(Cc3cccc(F)c3)o2)c(O)c1-c1c(OC)cccc1OC` [Example 99, 6-butyl-5-(2,6-dimethoxyphenyl)-3-{5-[(3-fluorophenyl)methyl]-1,3,4-oxadiazol-2-yl}pyridine-2,4-diol] fall in the same range of EC50: 0.01 to 10 nM for the first, 0.01 to 10 nM for the second.

`CCCCc1nc(O)c(-c2nnc(CN(C)C(=O)c3cccnc3)o2)c(O)c1-c1c(OC)cccc1OC` [Example 165, N-({5-[6-butyl-5-(2,6-dimethoxyphenyl)-2,4-dihydroxypyridin-3-yl]-1,3,4-oxadiazol-2-yl}methyl)-N-methylpyridine-3-carboxamide] and `CCCCc1nc(O)c(-c2nnc(Cc3nc(-c4ccccn4)no3)o2)c(O)c1-c1c(OC)cccc1OC` [Example 55, 6-butyl-5-(2,6-dimethoxyphenyl)-3-(5-{[3-(pyridin-2-yl)-1,2,4-oxadiazol-5-yl]methyl}-1,3,4-oxadiazol-2-yl)pyridine-2,4-diol] fall in the same range of EC50: 0.01 to 10 nM for the first, 0.01 to 10 nM for the second.

`CCCCc1nc(O)c(-c2nnc(CC(=O)N3CCOCC3)o2)c(O)c1-c1c(OC)cccc1OC` [Example 196, 2-{5-[6-butyl-5-(2,6-dimethoxyphenyl)-2,4-dihydroxypyridin-3-yl]-1,3,4-oxadiazol-2-yl}-1-(morpholin-4-yl)ethan-1-one] and `CCCCc1nc(O)c(-c2nnc(CC(=O)N3CCCCC3)o2)c(O)c1-c1c(OC)cccc1OC` [Example 195, 2-{5-[6-butyl-5-(2,6-dimethoxyphenyl)-2,4-dihydroxypyridin-3-yl]-1,3,4-oxadiazol-2-yl}-1-(piperidin-1-yl)ethan-1-one] fall in the same range of EC50: 0.01 to 10 nM for the first, 0.01 to 10 nM for the second.

`CCCCc1nc(O)c(-c2nnc(Cc3n[nH]c4ccccc34)o2)c(O)c1-c1c(OC)cccc1OC` [Example 43, 6-butyl-5-(2,6-dimethoxyphenyl)-3-[5-(1H-indazol-3-ylmethyl)-1,3,4-oxadiazol-2-yl]pyridine-2,4-diol] and `CCCCc1nc(O)c(-c2nnc(Cc3nc(-c4ccccc4)sc3C)o2)c(O)c1-c1c(OC)cccc1OC` [Example 84, 6-butyl-5-(2,6-dimethoxyphenyl)-3-{5-[(5-methyl-2-phenyl-1,3-thiazol-4-yl)methyl]-1,3,4-oxadiazol-2-yl}pyridine-2,4-diol] fall in the same range of EC50: 0.01 to 10 nM for the first, 0.01 to 10 nM for the second.

Compared with `CCCCc1nc(O)c(-c2nnc(CCc3ncc(-c4ccccc4)o3)o2)c(O)c1-c1c(OC)cccc1OC` [Example 28, 6-butyl-5-(2,6-dimethoxyphenyl)-3-{5-[2-(5-phenyl-1,3-oxazol-2-yl)ethyl]-1,3,4-oxadiazol-2-yl}pyridine-2,4-diol], `CCCCc1nc(O)c(-c2nnc(Cc3nc(-c4ccncc4)no3)o2)c(O)c1-c1c(OC)cccc1OC` [Example 104, 6-butyl-5-(2,6-dimethoxyphenyl)-3-(5-{[3-(pyridin-4-yl)-1,2,4-oxadiazol-5-yl]methyl}-1,3,4-oxadiazol-2-yl)pyridine-2,4-diol] is lower in EC50: 10 to 100 nM for the first, 0.01 to 10 nM for the second.

First: CCOCc1nc(O)c(-c2nnc(CN3CCCC3=O)o2)c(O)c1-c1c(OC)cc(F)cc1OC [Example 215, 1-({5-[6-(ethoxymethyl)-5-(4-fluoro-2,6-dimethoxyphenyl)-2,4-dihydroxypyridin-3-yl]-1,3,4-oxadiazol-2-yl}methyl) pyrrolidin-2-one]
Second: CCCCc1nc(O)c(-c2nnc(CC(=O)N3CCNC(=O)C3)o2)c(O)c1-c1c(OC)cccc1OC [Example 184, 4-(2-{5-[6-butyl-5-(2,6-dimethoxyphenyl)-2,4-dihydroxypyridin-3-yl]-1,3,4-oxadiazol-2-yl}acetyl) piperazin-2-one]
The EC50 of the first is higher: 10 to 100 nM for the first, 0.01 to 10 nM for the second.
